Reference: patent US20070026080A1, “Manufacturing process for tigecycline” (Wyeth, priority 2005, published 2007)

Experiment: Strength and degradation profile of tigecycline 20 mg/mL bulk solutions by reversed phase HPLC (effect of temperature, time, pH, dissolved oxygen; Runs A to O)
Type: physicochemical
Conditions: 2° C.
Description: The contents of the sample vials are dissolved in diluent. The sample solution is diluted, if necessary, and chromatographed on a reversed phase column using gradient elution. Impurities are determined by comparing the impurity peak areas in the sample preparation chromatogram to the average area of tigecycline peaks in the standard preparation chromatograms obtained concomitantly.
Chromatographic Column—Length about 15 cm, inside diameter about 4.6 mm, packed with Inertsil ODS2, 5 μm size particles or equivalent.
Detector—Ultraviolet spectrophotometric detector capable of operating at 248 nm with a sensitivity of about 0.5 absorbance units full scale.
The results of additional studies to investigate the effect of processing parameters such as temperature, time, and dissolved oxygen content on the purity profile of tigecycline solutions using the following materials, methods and procedures are presented in Tables A to O.
The experiments were run in plastic glove bags under normal laboratory light conditions. Plastic glove boxes will be used to control the headspace of the beakers. The batch size was 200 mL. • 1. Prepare the glove bag with a mixture of nitrogen and air to achieve an oxygen level in the solution as per the design. • 2. Place the jacketed beaker on the magnetic stirrer. Connect it to the cooler. Set the cooler to the desired set point. • 3. Add 200 mL of SWFI in to the beaker. Allow equilibrating. Measure the temperature and oxygen content. When it reaches the desired condition, add accurately weighed API and mix until dissolved. If necessary use spatula to aid dissolution. For pH adjustments, use 4 mL of either 0.1N NaOH or 0.1N HCl and 196 mL of WFI for manufacture. • 4. After complete dissolution, Transfer about 5.5 mL of Solution in vials and stopper them. These vials will be stoppered at the appropriate headspace conditions. Place the vials in appropriate temperature conditions. • 5. Sample the vials at 1, 4, 8, 10, 12 and 24 hours. Send the samples for analysis. Freeze the 10, 12 and 24 samples at −20° C. for analysis the following day. • 6. Measure pH and record color of the solution at each time point. Results
The 1-hour samples were taken directly from the beakers. Samples for later time points were collected in stoppered vials processed in the atmosphere of the bag in order to simulate the headspace conditions then placed in water baths or refrigerator to maintain there respective temperature conditions. This was done to maintain safety in the lab. Disposable plastic glove bags require constant flow of a mixture of nitrogen and air to maintain headspace oxygen level that will result in the desired dissolved oxygen (DO) content in the sample. The pH of samples was measured at each sample points.
Strength and degradation profile was analyzed by HPLC as described above. […] Degradation was slightly higher at higher temperature condition.

[1] = Run #K, 20 mg/mL, pH 8.2, Oxygen 0.1 mg/L, hours 1,4,8,10,12,24 at r6-r11, after 24 hours
[2] = Run #L, pH 7.7, Oxygen = 0.1 mg/L, 1 Hrs
[3] = Run #L, pH 7.7, Oxygen = 0.1 mg/L, 4 Hrs
[4] = Run #L, pH 7.7, Oxygen = 0.1 mg/L, 8 Hrs
[5] = Run #L, pH 7.7, Oxygen = 0.1 mg/L, 10 Hrs
[6] = Run #L, pH 7.7, Oxygen = 0.1 mg/L, 12 Hrs

CN(C)c1cc(NC(=O)CNC(C)(C)C)c(O)c2c1C[C@H]1C[C@H]3[C@H](N(C)C)C(O)=C(C(N)=O)C(=O)[C@@]3(O)C(O)=C1C2=O [Tigecycline]
RRT 0.74 Epimer [1]: 0.17% | RRT 1.45 [1]: 0.08% | RRT 1.64 Mino [1]: 0.14% | RRT 1.85 MW = 597 [1]: 0.08% | Strength [1]: 19.067 mg/mL | Total [1]: 0.55% | RRT 0.12 MW = 633 [2]: BRL (BRL means below reporting limit (meaning less than 0.05% of tigecycline peak)) | RRT 0.23 MW = 572 [2]: BRL (BRL means below reporting limit (meaning less than 0.05% of tigecycline peak)) | RRT 0.50 MW = 601 [2]: BRL (BRL means below reporting limit (meaning less than 0.05% of tigecycline peak)) | RRT 0.55 MW = 583 [2]: BRL (BRL means below reporting limit (meaning less than 0.05% of tigecycline peak)) | RRT 0.58 [2]: 0.08% | RRT 0.64 9-Amino [2]: BRL (BRL means below reporting limit (meaning less than 0.05% of tigecycline peak)) | RRT 0.74 Epimer [2]: 0.17% | RRT 0.76 [2]: BRL (BRL means below reporting limit (meaning less than 0.05% of tigecycline peak)) | RRT 0.78 MW = 557 [2]: BRL (BRL means below reporting limit (meaning less than 0.05% of tigecycline peak)) | RRT 1.12 [2]: BRL (BRL means below reporting limit (meaning less than 0.05% of tigecycline peak)) | RRT 1.45 [2]: 0.08% | RRT 1.58 [2]: BRL (BRL means below reporting limit (meaning less than 0.05% of tigecycline peak)) | RRT 1.64 Mino [2]: 0.14% | RRT 1.67 MW = 556 [2]: BRL (BRL means below reporting limit (meaning less than 0.05% of tigecycline peak)) | RRT 1.85 MW = 597 [2]: 0.07% | Strength [2]: 19.23 mg/mL | Total [2]: 0.53% | RRT 0.12 MW = 633 [3]: BRL (BRL means below reporting limit (meaning less than 0.05% of tigecycline peak)) | RRT 0.23 MW = 572 [3]: BRL (BRL means below reporting limit (meaning less than 0.05% of tigecycline peak)) | RRT 0.50 MW = 601 [3]: BRL (BRL means below reporting limit (meaning less than 0.05% of tigecycline peak)) | RRT 0.55 MW = 583 [3]: BRL (BRL means below reporting limit (meaning less than 0.05% of tigecycline peak)) | RRT 0.58 [3]: 0.08% | RRT 0.64 9-Amino [3]: BRL (BRL means below reporting limit (meaning less than 0.05% of tigecycline peak)) | RRT 0.74 Epimer [3]: 0.17% | RRT 0.76 [3]: BRL (BRL means below reporting limit (meaning less than 0.05% of tigecycline peak)) | RRT 0.78 MW = 557 [3]: BRL (BRL means below reporting limit (meaning less than 0.05% of tigecycline peak)) | RRT 1.12 [3]: BRL (BRL means below reporting limit (meaning less than 0.05% of tigecycline peak)) | RRT 1.45 [3]: 0.07% | RRT 1.58 [3]: BRL (BRL means below reporting limit (meaning less than 0.05% of tigecycline peak)) | RRT 1.64 Mino [3]: 0.15% | RRT 1.67 MW = 556 [3]: BRL (BRL means below reporting limit (meaning less than 0.05% of tigecycline peak)) | RRT 1.85 MW = 597 [3]: 0.08% | Strength [3]: 19.053 mg/mL | Total [3]: 0.54% | RRT 0.12 MW = 633 [4]: BRL (BRL means below reporting limit (meaning less than 0.05% of tigecycline peak)) | RRT 0.23 MW = 572 [4]: BRL (BRL means below reporting limit (meaning less than 0.05% of tigecycline peak)) | RRT 0.50 MW = 601 [4]: BRL (BRL means below reporting limit (meaning less than 0.05% of tigecycline peak)) | RRT 0.55 MW = 583 [4]: BRL (BRL means below reporting limit (meaning less than 0.05% of tigecycline peak)) | RRT 0.58 [4]: 0.08% | RRT 0.64 9-Amino [4]: BRL (BRL means below reporting limit (meaning less than 0.05% of tigecycline peak)) | RRT 0.74 Epimer [4]: 0.17% | RRT 0.76 [4]: 0.05% | RRT 0.78 MW = 557 [4]: BRL (BRL means below reporting limit (meaning less than 0.05% of tigecycline peak)) | RRT 1.12 [4]: BRL (BRL means below reporting limit (meaning less than 0.05% of tigecycline peak)) | RRT 1.45 [4]: 0.08% | RRT 1.58 [4]: BRL (BRL means below reporting limit (meaning less than 0.05% of tigecycline peak)) | RRT 1.64 Mino [4]: 0.13% | RRT 1.67 MW = 556 [4]: BRL (BRL means below reporting limit (meaning less than 0.05% of tigecycline peak)) | RRT 1.85 MW = 597 [4]: 0.08% | Strength [4]: 18.988 mg/mL | Total [4]: 0.60% | RRT 0.12 MW = 633 [5]: BRL (BRL means below reporting limit (meaning less than 0.05% of tigecycline peak)) | RRT 0.23 MW = 572 [5]: BRL (BRL means below reporting limit (meaning less than 0.05% of tigecycline peak)) | RRT 0.50 MW = 601 [5]: BRL (BRL means below reporting limit (meaning less than 0.05% of tigecycline peak)) | RRT 0.55 MW = 583 [5]: BRL (BRL means below reporting limit (meaning less than 0.05% of tigecycline peak)) | RRT 0.58 [5]: 0.07% | RRT 0.64 9-Amino [5]: BRL (BRL means below reporting limit (meaning less than 0.05% of tigecycline peak)) | RRT 0.74 Epimer [5]: 0.22% | RRT 0.76 [5]: 0.05% | RRT 0.78 MW = 557 [5]: BRL (BRL means below reporting limit (meaning less than 0.05% of tigecycline peak)) | RRT 1.12 [5]: BRL (BRL means below reporting limit (meaning less than 0.05% of tigecycline peak)) | RRT 1.45 [5]: 0.07% | RRT 1.58 [5]: BRL (BRL means below reporting limit (meaning less than 0.05% of tigecycline peak)) | RRT 1.64 Mino [5]: 0.13% | RRT 1.67 MW = 556 [5]: BRL (BRL means below reporting limit (meaning less than 0.05% of tigecycline peak)) | RRT 1.85 MW = 597 [5]: 0.08% | Strength [5]: 19.424 mg/mL | Total [5]: 0.62% | RRT 0.12 MW = 633 [6]: BRL (BRL means below reporting limit (meaning less than 0.05% of tigecycline peak)) | RRT 0.23 MW = 572 [6]: BRL (BRL means below reporting limit (meaning less than 0.05% of tigecycline peak)) | RRT 0.50 MW = 601 [6]: BRL (BRL means below reporting limit (meaning less than 0.05% of tigecycline peak)) | RRT 0.55 MW = 583 [6]: BRL (BRL means below reporting limit (meaning less than 0.05% of tigecycline peak)) | RRT 0.58 [6]: 0.07% | RRT 0.64 9-Amino [6]: BRL (BRL means below reporting limit (meaning less than 0.05% of tigecycline peak)) | RRT 0.74 Epimer [6]: 0.23% | RRT 0.76 [6]: BRL (BRL means below reporting limit (meaning less than 0.05% of tigecycline peak)) | RRT 0.78 MW = 557 [6]: BRL (BRL means below reporting limit (meaning less than 0.05% of tigecycline peak)) | RRT 1.12 [6]: BRL (BRL means below reporting limit (meaning less than 0.05% of tigecycline peak))
